From article PMC5811606, “Characterization of ^111In-labeled Glucose-Dependent Insulinotropic Polypeptide as a Radiotracer for Neuroendocrine Tumors” (Scientific Reports, 2018)
Read-outs that look alike come from different tables or passages of the source.

Assay: Biodistribution study, BHK-GIPR tumor mice
Type: in vivo, BALB/c nude mice
Settings: female, mouse, iv, total radioactivity, BHK-GIPR tumor BALB/c nude mice, i.v., 0.2 µg, mean n=5; for tissue uptake at 1 h / tissue uptake at 4 h / tissue uptake at 24 h: BALB/c nude; for tissue uptake at 1 h / tissue to tissue ratio at 1 h: 1 h p.i.; for tissue uptake at 24 h / tissue to tissue ratio at 24 h: 24 h p.i.
Protocol: All animal experiments were approved by the Animal Welfare Body of the Radboud University, Nijmegen, The Netherlands and carried out in accordance with their guidelines. Six to eight weeks old, female BALB/c nude mice and C3H mice were purchased from Janvier labs (Le Genest Saint Isle, France). For all in vivo experiments, 6-8 weeks old female BALB/c nude mice were injected subcutaneously in the right shoulder with 0.2 ml of a 2.5 × 10^7 cells/ml suspension of BHK-GIPR transfected cells or with 0.2 ml of a 2.5 × 10^7 cells/ml suspension of NES2Y cells mixed with matrigel (2:1) in the right shoulder. When the tumor reached a diameter of 2-5 mm, mice were randomly divided in groups.
BALB/c nude mice bearing BHK-GIPR transfected tumors were injected intravenously with approximately 3 MBq (peptide dose 0.2 µg = 0.04 nmol) of [Lys^37(^111In-DTPA)]N-acetyl-GIP1-42 via the tail vein. At various time points after injection (1, 4 and 24 hours), mice were euthanized by CO2/O2 suffocation and blood, tumor and other relevant tissues were dissected, weighed and measured in a well type gamma counter. The percentage injected dose per gram (%ID/g) was calculated for each tissue. To determine whether the GIP1-42 uptake was GIPR mediated, 25 µg of unlabeled GIP1-42 was co-injected in a separate group (n = 5) and mice were euthanized four hours post-injection. BALB/c nude mice bearing NES2Y tumors (n = 5) were injected intravenously with approximately 3 MBq (peptide dose 0.2 µg = 0.04 nmol) of [Lys^37(^111In-DTPA)]N-acetyl-GIP1-42 via the tail vein. One hour after injection, mice were euthanized by CO2/O2 suffocation and blood, tumor and other relevant tissues were dissected, weighed and measured in a well type gamma counter. The percentage injected dose per gram (%ID/g) was determined for each tissue. To determine whether the GIP1-42 uptake was GIPR mediated, 25 µg of unlabeled GIP1-42 was co-injected in a separate group (n = 2) and mice were euthanized one hours post-injection.

[1] = BHK-GIPR tumor, 0.2 ug, read-out: Tumor uptake
[2] = blood, 0.2 ug, read-out: Blood uptake
[3] = duodenum, 0.2 ug, read-out: Duodenum uptake
[4] = heart, 0.2 ug, read-out: Heart uptake
[5] = kidney, 0.2 ug, read-out: Kidney uptake
[6] = liver, 0.2 ug, read-out: Liver uptake
[7] = lung, 0.2 ug, read-out: Lung uptake
[8] = muscle, 0.2 ug, read-out: Muscle uptake
[9] = pancreas, 0.2 ug, read-out: Pancreas uptake
[10] = spleen, 0.2 ug, read-out: Spleen uptake
[11] = stomach, 0.2 ug, read-out: Stomach uptake
[12] = tumor/blood, 0.2 ug, read-out: Tumor/Blood
[13] = tumor/heart, 0.2 ug, read-out: Tumor/Heart
[14] = tumor/kidney, 0.2 ug, read-out: Tumor/Kidney
[15] = tumor/muscle, 0.2 ug, read-out: Tumor/Muscle

Q: With CC[C@H](C)[C@H](NC(=O)[C@H](CO)NC(=O)[C@H](Cc1ccc(O)cc1)NC(=O)[C@H](CC(=O)O)NC(=O)[C@H](CO)NC(=O)[C@@H](NC(=O)[C@H](Cc1ccccc1)NC(=O)[C@@H](NC(=O)CNC(=O)[C@H](CCC(=O)O)NC(=O)[C@H](C)NC(=O)[C@H](Cc1ccc(O)cc1)NC(C)=O)[C@@H](C)O)[C@@H](C)CC)C(=O)N[C@@H](C)C(=O)N[C@@H](CCSC)C(=O)N[C@@H](CC(=O)O)C(=O)N[C@@H](CCCCN)C(=O)N[C@H](C(=O)N[C@@H](Cc1c[nH]cn1)C(=O)N[C@@H](CCC(N)=O)C(=O)N[C@@H](CCC(N)=O)C(=O)N[C@@H](CC(=O)O)C(=O)N[C@@H](Cc1ccccc1)C(=O)N[C@H](C(=O)N[C@@H](CC(N)=O)C(=O)N[C@@H](Cc1c[nH]c2ccccc12)C(=O)N[C@@H](CC(C)C)C(=O)N[C@@H](CC(C)C)C(=O)N[C@@H](C)C(=O)N[C@@H](CCC(N)=O)C(=O)N[C@@H](CCCCN)C(=O)NCC(=O)N[C@@H](CCCCN)C(=O)N[C@@H](CCCCN)C(=O)N[C@@H](CC(N)=O)C(=O)N[C@@H](CC(=O)O)C(=O)N[C@@H](Cc1c[nH]c2ccccc12)C(=O)N[C@@H](CCCCNC(=O)CN(CCN(CCN(CC(=O)O)CC(=O)O)CC(=O)O)CC(=O)O)C(=O)N[C@@H](Cc1c[nH]cn1)C(=O)N[C@@H](CC(N)=O)C(=O)N[C@H](C(=O)N[C@H](C(=O)N[C@@H](CCC(N)=O)C(=O)O)[C@@H](C)O)[C@@H](C)CC)C(C)C)[C@@H](C)CC [[Lys^37(^111In-DTPA)]N-acetyl-GIP1-42, metal not drawn] as the compound, how does the tissue uptake at 1 h [1] read?
A: 4.69 %ID/g

Q: And the tissue uptake at 4 h (BHK-GIPR tumor, 0.2 ug, 4 h p.i., read-out: Tumor uptake)?
A: 3.27 %ID/g

Q: What about the tissue uptake at 24 h [1] of the same compound?
A: 2 ± 0.2 %ID/g

Q: What about the tissue uptake at 4 h (BHK-GIPR tumor, 4 h p.i. + xs (25 µg unlabeled GIP1-42), read-out: Tumor uptake) of the same compound?
A: 0.8 ± 0.2 %ID/g

Q: And the tissue uptake at 1 h [2]?
A: 0.248 %ID/g

Q: And the tissue uptake at 4 h (blood, 0.2 ug, 4 h p.i., read-out: Blood uptake)?
A: 0.045 %ID/g

Q: And the tissue uptake at 24 h [2]?
A: 0.017 %ID/g

Q: And the tissue uptake at 4 h (blood, 4 h p.i. + xs (25 µg unlabeled GIP1-42), read-out: Blood uptake)?
A: 0.031 %ID/g

Q: And the tissue uptake at 1 h [3]?
A: 0.561 %ID/g

Q: And the tissue uptake at 4 h (duodenum, 0.2 ug, 4 h p.i., read-out: Duodenum uptake)?
A: 0.448 %ID/g

Q: And the tissue uptake at 24 h [3]?
A: 0.378 %ID/g

Q: And the tissue uptake at 4 h (duodenum, 4 h p.i. + xs (25 µg unlabeled GIP1-42), read-out: Duodenum uptake)?
A: 0.392 %ID/g

Q: What about the tissue uptake at 1 h [4] of the same compound?
A: 0.2 %ID/g

Q: And the tissue uptake at 4 h (heart, 0.2 ug, 4 h p.i., read-out: Heart uptake)?
A: 0.116 %ID/g

Q: What about the tissue uptake at 24 h [4] of the same compound?
A: 0.081 %ID/g

Q: What about the tissue uptake at 4 h (heart, 4 h p.i. + xs (25 µg unlabeled GIP1-42), read-out: Heart uptake) of the same compound?
A: 0.096 %ID/g

Q: And the tissue uptake at 1 h [5]?
A: 211 %ID/g

Q: What about the tissue uptake at 4 h (kidney, 0.2 ug, 4 h p.i., read-out: Kidney uptake) of the same compound?
A: 228 %ID/g

Q: What about the tissue uptake at 24 h [5] of the same compound?
A: 173 %ID/g

Q: What about the tissue uptake at 4 h (kidney, 4 h p.i. + xs (25 µg unlabeled GIP1-42), read-out: Kidney uptake) of the same compound?
A: 227 %ID/g

Q: And the tissue uptake at 1 h [6]?
A: 1.1 %ID/g

Q: What about the tissue uptake at 4 h (liver, 0.2 ug, 4 h p.i., read-out: Liver uptake) of the same compound?
A: 1.16 %ID/g

Q: What about the tissue uptake at 24 h [6] of the same compound?
A: 0.695 %ID/g

Q: And the tissue uptake at 4 h (liver, 4 h p.i. + xs (25 µg unlabeled GIP1-42), read-out: Liver uptake)?
A: 1.09 %ID/g

Q: And the tissue uptake at 1 h [7]?
A: 0.545 %ID/g

Q: And the tissue uptake at 4 h (lung, 0.2 ug, 4 h p.i., read-out: Lung uptake)?
A: 0.332 %ID/g

Q: And the tissue uptake at 24 h [7]?
A: 0.184 %ID/g

Q: What about the tissue uptake at 4 h (lung, 4 h p.i. + xs (25 µg unlabeled GIP1-42), read-out: Lung uptake) of the same compound?
A: 0.331 %ID/g

Q: And the tissue uptake at 1 h [8]?
A: 0.135 %ID/g

Q: And the tissue uptake at 4 h (muscle, 0.2 ug, 4 h p.i., read-out: Muscle uptake)?
A: 0.082 %ID/g

Q: And the tissue uptake at 24 h [8]?
A: 0.058 %ID/g

Q: And the tissue uptake at 4 h (muscle, 4 h p.i. + xs (25 µg unlabeled GIP1-42), read-out: Muscle uptake)?
A: 0.068 %ID/g

Q: What about the tissue uptake at 1 h [9] of the same compound?
A: 0.296 %ID/g

Q: And the tissue uptake at 4 h (pancreas, 0.2 ug, 4 h p.i., read-out: Pancreas uptake)?
A: 0.193 %ID/g

Q: And the tissue uptake at 24 h [9]?
A: 0.137 %ID/g

Q: And the tissue uptake at 4 h (pancreas, 4 h p.i. + xs (25 µg unlabeled GIP1-42), read-out: Pancreas uptake)?
A: 0.147 %ID/g

Q: What about the tissue uptake at 1 h [10] of the same compound?
A: 0.603 %ID/g

Q: And the tissue uptake at 4 h (spleen, 0.2 ug, 4 h p.i., read-out: Spleen uptake)?
A: 0.528 %ID/g

Q: What about the tissue uptake at 24 h [10] of the same compound?
A: 0.493 %ID/g

Q: What about the tissue uptake at 4 h (spleen, 4 h p.i. + xs (25 µg unlabeled GIP1-42), read-out: Spleen uptake) of the same compound?
A: 0.519 %ID/g

Q: What about the tissue uptake at 1 h [11] of the same compound?
A: 0.502 %ID/g

Q: What about the tissue uptake at 4 h (stomach, 0.2 ug, 4 h p.i., read-out: Stomach uptake) of the same compound?
A: 0.362 %ID/g

Q: What about the tissue uptake at 24 h [11] of the same compound?
A: 0.258 %ID/g

Q: And the tissue uptake at 4 h (stomach, 4 h p.i. + xs (25 µg unlabeled GIP1-42), read-out: Stomach uptake)?
A: 0.268 %ID/g

Q: What about the tissue to tissue ratio at 24 h (tumor and lung, 0.2 ug, read-out: Tumor/Lung) of the same compound?
A: 11.3

Q: And the tissue to tissue ratio at 1 h [12]?
A: 21.8

Q: What about the tissue to tissue ratio at 4 h (tumor/blood, 0.2 ug, 4 h p.i., read-out: Tumor/Blood) of the same compound?
A: 77.6

Q: And the tissue to tissue ratio at 24 h [12]?
A: 130

Q: And the tissue to tissue ratio at 4 h (tumor/blood, 4 h p.i. + xs (25 µg unlabeled GIP1-42), read-out: Tumor/Blood)?
A: 29.8

Q: What about the tissue to tissue ratio at 1 h [13] of the same compound?
A: 23.6

Q: And the tissue to tissue ratio at 4 h (tumor/heart, 0.2 ug, 4 h p.i., read-out: Tumor/Heart)?
A: 29

Q: What about the tissue to tissue ratio at 24 h [13] of the same compound?
A: 25.5

Q: And the tissue to tissue ratio at 4 h (tumor/heart, 4 h p.i. + xs (25 µg unlabeled GIP1-42), read-out: Tumor/Heart)?
A: 8.89

Q: What about the tissue to tissue ratio at 1 h [14] of the same compound?
A: 0.023

Q: What about the tissue to tissue ratio at 4 h (tumor/kidney, 0.2 ug, 4 h p.i., read-out: Tumor/Kidney) of the same compound?
A: 0.014

Q: What about the tissue to tissue ratio at 24 h [14] of the same compound?
A: 0.011

Q: And the tissue to tissue ratio at 4 h (tumor/kidney, 4 h p.i. + xs (25 µg unlabeled GIP1-42), read-out: Tumor/Kidney)?
A: 0.004

Q: What about the tissue to tissue ratio at 1 h (tumor/lung, 0.2 ug, read-out: Tumor/Lung) of the same compound?
A: 8.64

Q: And the tissue to tissue ratio at 4 h (tumor/lung, 0.2 ug, 4 h p.i., read-out: Tumor/Lung)?
A: 10.1

Q: And the tissue to tissue ratio at 4 h (tumor/lung, 4 h p.i. + xs (25 µg unlabeled GIP1-42), read-out: Tumor/Lung)?
A: 2.68

Q: And the tissue to tissue ratio at 1 h [15]?
A: 35

Q: And the tissue to tissue ratio at 4 h (tumor/muscle, 0.2 ug, 4 h p.i., read-out: Tumor/Muscle)?
A: 40.4

Q: And the tissue to tissue ratio at 24 h [15]?
A: 36.4

Q: And the tissue to tissue ratio at 4 h (tumor/muscle, 4 h p.i. + xs (25 µg unlabeled GIP1-42), read-out: Tumor/Muscle)?
A: 12.4
